One block for each molecule: values may come before it. Starred links: 1 amine or outer side, 2 acyl side, 3 side chain; linkers in the order of their positions; H or OH if unused. Non-standard residues stand in square brackets, D forms with d. Residues, ends and D or L forms follow the SMILES beside them. *: point of attachment. AzaVal = azavaline, CC(C)N(N[*:1])C(=O)[*:2]; X1 = NC(=O)CN1CC[C@@]2(CCCN2*)C1=O; azaLeu = CC(C)CN(N[*:1])C(=O)[*:2]
How the values were obtained:
NF-kB [1] = test: NF-kB inhibition assay in HeLa cells stimulated with IL1α (Trans AM ELISA); assay type: cell-based, Human; conditions: for inhibition at 100 µM: Homo sapiens, HeLa, read-out: % NF-κB INHIBITION; for % NF-κB INHIBITION: HeLa cells, compound 100 μM for 6 hours, then 5 ng/ml IL1α for 30 minutes
Description: The activation of NF-kB is an event that takes place downstream of the homodimerisation of MyD88 and its binding to the intracytoplasmic portions of number of receptor complexes. The ability of the compounds which are the subject of the present invention to inhibit the activation of NF-kB downstream of the amplification cascade of the signal triggered by IL1α was therefore evaluated.
All the molecules were assayed beforehand with the MTT cell viability test, verifying that the dose of compound used in the NF-kB inhibition assay was lower than the toxic dose.
HeLa* cells were cultured in EMEM (EBSS) medium supplemented with 2 mM glutamine+1% non-essential amino acids+7.5% FBS (Foetal Bovine Serum)+10 ml/l of a solution of penicillin-streptomycin (10,000 units/ml penicillin and 10 mg/ml streptomycin).
(All cell media and the various components were purchased from Sigma-Aldrich. *HeLa cell line Human Negroid cervix epithelioid carcinoma Human from SIGMA ALDRICH ECACC Ref No: 93021013. IL1α*=SIGMA I2778 Interleukin-1-alpha IL1a Human, recombinant expressed in E. coli).
The cells were used after a number of cell passages ranging from 14 to 35.
Cells are seeded in 6-well plates at a density of 300,000 cells/well in complete medium and incubated overnight at 37° C., 5% CO2.
After approximately 18 hours, the complete medium is eliminated, cells are washed twice with PBS 1× and 1 ml of FBS-free medium is added to each well.
The molecules to be tested are subsequently added to the medium at a concentration of 100 μM. Cells are then incubated for 6 hours at 37° C., 5% CO2.
All the molecules assayed were dissolved in DMSO.
An equivalent volume of DMSO is added to the negative controls, i.e. cells not treated with the molecules.
At the end of the treatment with the molecules, the cells are stimulated with 5 ng/ml of IL1α* for 30 minutes and incubated at 37° C., 5% CO2.
An equivalent volume of PBS/BSA 0.4% (solution used to dissolve IL1α) is added to the negative controls, i.e. non-stimulated cells.
After stimulation with IL1α the cells are washed twice with PBS 1× and collected by cell scraping.
The cells are then centrifuged at 800 rpm, 4° C., 10 min. The supernatants are eliminated. The pellets are re-suspended in lysis buffer**, incubated for 10 minutes at 4° C. and centrifuged at maximum speed at 4° C. The pellets are eliminated and the supernatants frozen at −80° C.
The total protein content is subsequently measured by Bradford Assay using, as the standard, BSA at known concentration, and as used in the ELISA assay as described here below.
Activation/inhibition of NF-kB is evaluated using the Trans AM# (Active Motif) kit.
Il Trans AM kit permits detection of the activation of NF-kB induced by IL1α, through a calorimetric reaction that is obtained at the end of a routine ELISA assay.
The kit provides 96-well plates derivatised with an oligonucleotide that contains the consensus site of NF-kB (5′-GGGACTTT-CC-3′). This oligonucleotide specifically binds only the active form of NF-kB which is released after stimulation with IL1α. The first antibody supplied for detecting NF-kB recognises the p65 epitope which is accessible only when the transcriptional factor is active and binds its target DBNA sequence.
The secondary antibody supplied is conjugated to horse radish peroxidase which, with the addition of a chromogenic substrate, makes it possible to obtain a calorimetric reaction that can be evaluated spectrophotometrically at the wavelength of 450 nm.
The samples are assayed in duplicate and 10 μg of each extract are loaded into each well.
At the end of the assay, the % inhibition is calculated by processing the values obtained in the spectrophotometric readings as follows:
IL*-C*/IL-C=% activation of NF-kB.
IL*=A450 of cells stimulated and treated with the study molecules.
C*=A450 of cells not stimulated and treated with the study molecules.
IL=A450 of cells stimulated with IL1α and not treated with the molecules.
C=A450 of cells not stimulated and not treated. […]

[2] = tested on: IL-1-responsive human IL-8 promoter gene region; test: reporter gene assay (RGA) of luciferase activity in CaCo2 cells stimulated with IL-1; assay type: cell-based; conditions: substance 100 μM, IL-1 500 pg/mL
Excerpt: It is based on transient co-transfection of CaCo2 human intestinal epithelial cells with a reporter gene plasmid whose luciferase reporter gene expression is under control of the IL-1-responsive human IL-8 promoter gene region. The second plasmid in co-transfection is a vector coding for a control Renilla luciferase reporter gene, whose constitutive expression is used to estimate unspecific cellular toxicity of tested compounds. The read-out of the assay has been defined as the Relative Response Ratio (RRR) for the firefly and the Renilla luciferase, as follows: [formula] where the experimental sample is the value in cont per second (cps) of the experimental reporter luminescence, as defined for any unknown sample. The positive control is the value in cps of the reporter luminescence, as defined for the sample which identifies the maximal induction by IL-1 in the absence of reference inhibitor compound. The negative control is the value in cps of the reporter luminescence, as defined for the sample which identifies the absence of induction by IL-1. For the non-inducible Renilla luciferase, the RRR has been defined as follows: [formula]
The RGA is the read-out of the above experiments, and it was run as follows:
Plate 6×10^6 adherent CaCo2 cells on 10 cm plates. After 18-24 hours culture medium is changed, using 9 mL of D-MEM+glutamine 580 mg/L, without FBS and antibiotics. For each plate, 26 μg of IL-1-responsive reporter vector DNA (pGL2-NA-INT) and 4 μg of control reporter vector DNA are then dissolved in 500 μL Optimem (Invitrogen). Lipofectamine 2000 Reagent (Invitrogen) 30 μL are then added to 500 μL Optimem; this latter reaction mix is incubated for 5 min at room temperature. The DNA mix is then added drop by drop to the Lipofectamine 2000 mix. The resulting DNA/Lipofectamine mix is incubated for 20 min at room temperature and it is added drop by drop over the culture plate, by gently rocking the plate itself. Culture plates are then incubated for about 6 hours at 37° C. and 5% CO2. Cells are then trypsinized and transferred in 96-well plates, at 5×10^4 cells/well in 100 μL of culture medium (D-MEM with FBS 1%,+glutamine 580 mg/L), as required by the experimental design. Afterwards, cells were incubated for 16-18 hours at 37° C. and 5% CO2 and treated as follows: • Take out culture medium from each well. • Add 60 μL of fresh culture medium to control cell wells. • Add 40 μL of fresh culture medium to IL-1-treated wells. • Add 40 μL of fresh culture medium and 20 μL of substance at a concentration of 100 μM and 0.4% DMSO to inhibitor substance wells. • Add 20 μL fresh culture medium supplemented with 0.4% DMSO in IL-1-treated wells and in control cell wells. • Incubate at 37° C. and 5% CO2 for 4 hours. • After 2 hours, stimulate with 20 μL of IL-1 (500 pg/mL) for two additional hours at 37° C. and 5% CO2. • Appropriate amount of luciferase standard protein is included in additional assay wells. • Add for each well 80 μL of firefly luciferase substrate (Dual-Glo Luciferase Assay System reagent). • Incubate at room temperature for 10 min. • Read the firefly luciferase output on the Veritas lumenometer (Turner BioSystems). • Immediately add to each well 80 μL of the Renilla luciferase substrate (Dual-Glo Luciferase Assay System reagent). • Incubate at room temperature for 10 min. • Read the Renilla luciferase output on the Veritas lumenometer (Turner BioSystems).
Compounds considered positive in the RGA assay were those that gave a percentage inhibition ≧20%.

MyD88 homodimer = molecular target: T1, MyD88 homodimer (Homo sapiens, UniProt Q99836); test: co-immunoprecipitation assay of MyD88 homodimerisation (myc-MyD88 / GST-MyD88TIR, Western blot); assay type: binding; conditions: residual interaction in the MyD88 homodimer as percentage of the untreated protein; peptide 200 μM, 60 min at 4° C.
T1 construct: incubated with purified protein GST-MyD88TIR; made in house; host or cells: HEK293 (myc-MyD88, transient expression)
Excerpt: (§1) Preliminary studies on the inhibition of the homodimerisation of MyD88 have been conducted by the present inventors using a co-immunoprecipiation assay on a series of natural peptides (synthesised as acetylamide at the N terminal and as primary amide at the carboxyl terminal) comprising the consensus sequence of the BB loop. […] The protein myc-MyD88 is expressed temporarily in HEK293 cells and isolated from cell extracts by immunoprecipitation with the anti-myc antibody. The immunoprecipitated protein is incubated with purified protein GST-MyD88TIR for 60 min at 4° C. in the presence or absence of the synthetic peptide (final concentration 200 μM). After suitable washings, the proteins absorbed to the resin used for the immunoprecipitation are solubilised with SDS and analysed by Western blot for the presence of myc-MyD88 and GST-MyD88TIR. Percentage inhibition of NF-kB activation is also given for these two peptides

NF-kB [3] = test: NF-kB activation inhibition, preliminary studies on natural peptides (Table 1); assay type: cell-based; conditions: conditions not stated
Excerpt: as §1

T1 sequence (Q99836 whole entry): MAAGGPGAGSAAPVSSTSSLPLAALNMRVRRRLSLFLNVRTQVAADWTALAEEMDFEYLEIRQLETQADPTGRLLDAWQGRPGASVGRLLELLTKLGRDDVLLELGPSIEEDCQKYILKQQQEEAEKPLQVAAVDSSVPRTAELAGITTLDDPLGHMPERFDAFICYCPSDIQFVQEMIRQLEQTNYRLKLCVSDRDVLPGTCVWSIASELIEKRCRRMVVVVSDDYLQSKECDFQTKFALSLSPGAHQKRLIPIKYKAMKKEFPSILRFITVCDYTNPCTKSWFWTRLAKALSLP

Molecule: COc1ccc(C(=O)N2CCC[C@]23CCN(CC(=O)N[C@H](C(N)=O)[C@@H](C)O)C3=O)cc1NC(=O)c1cccnc1 [ST2792, PAM9-SP02-Beta2-Thr-NH2]
inhibition at 100 µM (NF-kB [1]): 22%

Molecule: CC(C)[C@H](NC(=O)[C@H](CC(=O)O)NC(=O)c1cccnc1)C(=O)N[C@H](C(=O)N1CCC[C@]12CCN(CC(N)=O)C2=O)C(C)C [ST2794, PAM9-Asp-Val-Val-Beta2-NH2]
% NF-κB INHIBITION (NF-kB [1]): 25%

Molecule: CC(=O)N[C@H](CCCNC(=N)N)C(=O)N[C@H](CC(=O)O)C(=O)N[C@@H](C(=O)N[C@H](CC(C)C)C(=O)N1CCC[C@@]12CCN(CC(N)=O)C2=O)C(C)C [ST2799, Ac-arg-asp-val-leu-Beta1-NH2] (Ac-[dR][dD][dV][dL]-X1)
% NF-κB INHIBITION (NF-kB [1]): 23%

Molecule: CC(=O)NCC(=O)N1CCC[C@H]1C(=O)Nc1cccc(C(=O)N[C@@H](CCCNC(=N)N)C(N)=O)c1C [ST2864, Ac-Gly-Pro-SP30-Arg-NH2]
inhibition at 100 µM (NF-kB [1]): 16%

Molecule: Ac-Arg-Asp-AzaLeu-Val-Pro-Gly-NH2 (Ac-RD[azaLeu]VPG-NH2; SMILES CC(=O)N[C@@H](CCCNC(=N)N)C(=O)N[C@@H](CC(=O)O)C(=O)NN(CC(C)C)C(=O)N[C@H](C(=O)N1CCC[C@H]1C(=O)NCC(N)=O)C(C)C) [ST2928]
% INHIBITION [2]: 29%

Molecule: Ac-Arg-Asp-Azagly-Val-Pro-Gly-NH2 [ST2927]
% INHIBITION [2]: 22%

Molecule: Ac-Arg-Asp-Val-AzaVal-Pro-Gly-NH2 [ST2920]
% INHIBITION [2]: 25%

Molecule: Ac-Azagly-Azagly-pro-leu-val-asp-arg-NH2 [ST3032]
% INHIBITION [2]: 21%

% residual interaction (MyD88 homodimer): 29%
Molecule: Ac-RDVLPGT-NH2 [ST2348]
% NF-kB inhibition (NF-kB [3]): 37%

% residual interaction (MyD88 homodimer): 18%
Molecule: Ac-RDVVPGG-NH2 [ST2350]
% NF-kB inhibition (NF-kB [3]): 20%

Molecule: Ac-thr-Azagly-pro-leu-val-asp-arg-NH2 [ST2930]
% INHIBITION [2]: 24%

Molecule: Ac-thr-gly-pro-leu-val-asp-arg-NH2 [ST2565]
% NF-κB INHIBITION (NF-kB [1]): 30%

Molecule: Ap-PTDLVRG-NH2 [ST2403, reference compound]
inhibition of NF-κB activation (NF-kB [1]; HeLa cells stimulated with IL-1α): inactive

Molecule: H-Arg-Gly-AzaVal-Val-Pro-Gly-NH2 (H-RG[AzaVal]VPG-NH2; SMILES CC(C)[C@H](NC(=O)N(NC(=O)CNC(=O)[C@@H](N)CCCNC(=N)N)C(C)C)C(=O)N1CCC[C@H]1C(=O)NCC(N)=O) [ST2926]
% INHIBITION [2]: 20%
